For orientation: IC50 means the point on the concentration scale where inhibition reaches its midpoint. Lower therefore signals inhibition by little substance.

Drawing on patent US8546414B2, “Ion channel modulators and methods of use” (Vertex Pharmaceuticals Incorporated, priority 2004, dated 2013), this text covers IC50 for 34 compounds.

Holding throughout (type): cell-based
One assay addresses NaV1.8 (Homo sapiens, UniProt Q9Y5Y9). Kind of assay: VIPR optical membrane potential assay, NaV1.8 (other subtypes in an analogous mode). The settings on record: Table 9, NaV 1.8 receptors. The gist of the method: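 Cells expressing the NaV subtype stained with coumarin and DiSBAC2(3) membrane-potential dyes, then incubated with test compound for 20-30 minutes. Depolarization evoked by sodium addback and read optically on VIPR; block measured as reduced membrane-potential response, with tetracaine as positive control.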

A further assay deals with T1, NaV1.3 (Homo sapiens, UniProt Q9NY46).
T1 construct: expressed in transfected cells; host or cells: HEK293
Description: VIPR optical membrane potential assay with electrical stimulation, NaV1.3. The settings on record: Table 9, NaV 1.3 receptors. An outline of the steps: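 HEK293 cells stably expressing NaV1.3, stained with CC2-DMPE (10 μM final) then DiSBAC2(3) with ABSC1, 30 min each at RT; compounds added with oxonol. Electrical stimulation for 3 s; 460/580 nm background-subtracted emission ratio Rf/Ri, normalised to tetracaine (positive) and untreated (negative) controls.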

In a further assay the target is T2, CaV2.2 (Homo sapiens, UniProt Q00975).
T2 construct: expressed in transfected cells; host or cells: HEK293
T2 sequence (Q00975 whole entry): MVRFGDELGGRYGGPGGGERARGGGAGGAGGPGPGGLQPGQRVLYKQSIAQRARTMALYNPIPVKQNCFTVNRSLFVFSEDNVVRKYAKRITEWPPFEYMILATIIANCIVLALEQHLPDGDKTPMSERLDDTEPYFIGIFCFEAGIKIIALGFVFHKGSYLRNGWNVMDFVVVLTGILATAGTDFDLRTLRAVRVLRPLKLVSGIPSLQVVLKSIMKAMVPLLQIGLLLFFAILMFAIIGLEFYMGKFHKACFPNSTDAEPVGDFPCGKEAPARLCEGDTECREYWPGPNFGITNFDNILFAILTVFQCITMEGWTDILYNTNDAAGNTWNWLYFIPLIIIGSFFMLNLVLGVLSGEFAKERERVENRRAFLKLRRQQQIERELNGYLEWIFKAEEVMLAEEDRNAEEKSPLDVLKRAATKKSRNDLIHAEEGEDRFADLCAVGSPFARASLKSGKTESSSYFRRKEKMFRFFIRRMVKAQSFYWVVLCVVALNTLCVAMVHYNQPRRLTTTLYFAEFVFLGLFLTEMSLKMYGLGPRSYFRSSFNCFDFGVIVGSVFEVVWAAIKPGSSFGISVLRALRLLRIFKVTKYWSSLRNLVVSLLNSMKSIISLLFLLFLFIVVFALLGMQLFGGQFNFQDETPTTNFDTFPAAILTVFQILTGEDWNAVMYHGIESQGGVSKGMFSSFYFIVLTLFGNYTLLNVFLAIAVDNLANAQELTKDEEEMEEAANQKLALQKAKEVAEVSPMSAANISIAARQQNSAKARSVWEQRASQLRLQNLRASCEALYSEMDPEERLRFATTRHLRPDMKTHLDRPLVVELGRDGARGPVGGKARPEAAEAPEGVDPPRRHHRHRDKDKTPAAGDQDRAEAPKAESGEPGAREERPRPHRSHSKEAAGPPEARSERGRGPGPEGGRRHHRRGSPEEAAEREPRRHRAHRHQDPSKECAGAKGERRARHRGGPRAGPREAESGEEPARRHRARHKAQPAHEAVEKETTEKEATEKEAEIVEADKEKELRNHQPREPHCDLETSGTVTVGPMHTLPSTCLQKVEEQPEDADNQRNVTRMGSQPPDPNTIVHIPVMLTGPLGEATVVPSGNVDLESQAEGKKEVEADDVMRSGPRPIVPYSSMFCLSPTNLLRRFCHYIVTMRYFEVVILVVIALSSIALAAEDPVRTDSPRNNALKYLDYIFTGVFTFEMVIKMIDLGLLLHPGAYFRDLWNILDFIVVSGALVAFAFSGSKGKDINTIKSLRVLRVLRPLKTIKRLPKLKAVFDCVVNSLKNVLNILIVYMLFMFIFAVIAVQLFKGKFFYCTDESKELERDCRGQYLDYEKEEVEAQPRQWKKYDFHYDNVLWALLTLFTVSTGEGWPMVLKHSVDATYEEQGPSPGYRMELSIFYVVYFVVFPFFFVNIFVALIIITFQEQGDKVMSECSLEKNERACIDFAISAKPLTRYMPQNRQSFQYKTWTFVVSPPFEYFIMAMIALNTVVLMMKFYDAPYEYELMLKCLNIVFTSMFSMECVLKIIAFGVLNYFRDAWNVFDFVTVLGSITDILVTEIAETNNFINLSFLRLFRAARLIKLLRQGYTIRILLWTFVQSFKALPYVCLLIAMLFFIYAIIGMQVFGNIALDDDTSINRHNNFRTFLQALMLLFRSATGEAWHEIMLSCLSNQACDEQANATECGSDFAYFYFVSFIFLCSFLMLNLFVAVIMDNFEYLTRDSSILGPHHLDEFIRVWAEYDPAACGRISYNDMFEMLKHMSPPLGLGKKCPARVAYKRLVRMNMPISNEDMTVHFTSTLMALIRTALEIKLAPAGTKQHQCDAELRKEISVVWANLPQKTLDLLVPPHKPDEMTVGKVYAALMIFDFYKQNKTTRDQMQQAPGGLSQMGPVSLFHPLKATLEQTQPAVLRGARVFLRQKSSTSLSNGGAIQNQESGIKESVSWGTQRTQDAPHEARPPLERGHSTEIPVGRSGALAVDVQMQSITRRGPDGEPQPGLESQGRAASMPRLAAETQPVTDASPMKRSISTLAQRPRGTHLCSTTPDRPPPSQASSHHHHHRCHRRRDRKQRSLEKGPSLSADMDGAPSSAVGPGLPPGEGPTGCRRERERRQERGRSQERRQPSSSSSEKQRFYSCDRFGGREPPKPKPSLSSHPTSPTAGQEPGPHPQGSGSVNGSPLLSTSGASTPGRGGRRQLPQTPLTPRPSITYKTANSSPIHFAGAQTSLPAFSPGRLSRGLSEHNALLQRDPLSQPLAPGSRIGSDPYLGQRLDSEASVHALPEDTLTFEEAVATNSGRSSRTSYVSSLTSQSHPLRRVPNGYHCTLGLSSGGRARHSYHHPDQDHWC
T2 sequence (P54284 whole entry partner): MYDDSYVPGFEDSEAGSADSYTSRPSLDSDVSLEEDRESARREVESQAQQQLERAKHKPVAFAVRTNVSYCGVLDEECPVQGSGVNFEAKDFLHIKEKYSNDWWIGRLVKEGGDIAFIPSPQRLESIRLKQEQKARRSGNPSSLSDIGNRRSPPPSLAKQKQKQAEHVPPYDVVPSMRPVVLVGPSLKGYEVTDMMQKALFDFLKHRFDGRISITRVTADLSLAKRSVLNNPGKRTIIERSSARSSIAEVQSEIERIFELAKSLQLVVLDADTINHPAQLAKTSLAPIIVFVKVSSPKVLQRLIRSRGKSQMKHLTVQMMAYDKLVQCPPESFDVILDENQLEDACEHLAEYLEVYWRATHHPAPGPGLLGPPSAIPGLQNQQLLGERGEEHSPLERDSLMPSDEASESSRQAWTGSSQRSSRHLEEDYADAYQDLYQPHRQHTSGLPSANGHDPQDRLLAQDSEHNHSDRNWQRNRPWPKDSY
T2 sequence (P54289 25-956 partner limits assumed): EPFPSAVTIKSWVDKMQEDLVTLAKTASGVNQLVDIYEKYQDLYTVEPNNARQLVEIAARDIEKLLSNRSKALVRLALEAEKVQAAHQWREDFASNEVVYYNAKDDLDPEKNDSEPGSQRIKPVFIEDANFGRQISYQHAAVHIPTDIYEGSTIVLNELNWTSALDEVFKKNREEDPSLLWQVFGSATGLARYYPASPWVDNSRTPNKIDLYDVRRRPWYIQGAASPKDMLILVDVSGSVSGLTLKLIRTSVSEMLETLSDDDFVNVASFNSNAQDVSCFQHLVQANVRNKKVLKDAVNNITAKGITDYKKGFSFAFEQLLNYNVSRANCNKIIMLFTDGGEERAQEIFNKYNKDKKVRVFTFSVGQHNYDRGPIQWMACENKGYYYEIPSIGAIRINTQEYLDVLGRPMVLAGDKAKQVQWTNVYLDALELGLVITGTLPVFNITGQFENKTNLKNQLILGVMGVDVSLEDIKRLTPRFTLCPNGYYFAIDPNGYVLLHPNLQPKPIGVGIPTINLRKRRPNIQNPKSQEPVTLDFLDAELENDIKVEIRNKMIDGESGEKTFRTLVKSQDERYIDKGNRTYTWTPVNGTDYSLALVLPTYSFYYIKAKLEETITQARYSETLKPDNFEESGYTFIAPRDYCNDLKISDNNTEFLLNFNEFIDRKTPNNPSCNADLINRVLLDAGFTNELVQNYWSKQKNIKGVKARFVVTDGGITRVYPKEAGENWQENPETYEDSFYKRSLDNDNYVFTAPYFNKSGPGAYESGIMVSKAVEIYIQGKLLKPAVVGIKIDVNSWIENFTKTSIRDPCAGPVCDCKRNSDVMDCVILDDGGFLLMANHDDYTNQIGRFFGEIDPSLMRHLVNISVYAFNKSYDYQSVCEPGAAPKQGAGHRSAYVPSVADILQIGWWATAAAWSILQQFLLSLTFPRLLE
T2 sequence (P54289 957-1103 partner limits assumed): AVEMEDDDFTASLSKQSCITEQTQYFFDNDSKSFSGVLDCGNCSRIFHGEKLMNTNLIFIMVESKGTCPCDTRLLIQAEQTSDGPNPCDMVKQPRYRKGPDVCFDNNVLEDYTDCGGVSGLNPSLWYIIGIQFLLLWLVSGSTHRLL
Description: VIPR optical membrane potential assay with electrical stimulation, CaV2.2. The settings on record: Table 9, CaV 2.2 receptors. The gist of the method:
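HEK293 cells stably expressing CaV2.2 stained with CC2-DMPE/DiSBAC2(3) voltage-sensitive dyes (10 μM final CC2-DMPE, 30 min, RT), then compound added and cells electrically stimulated for 3-5 s. Read-out: background-subtracted 460/580 nm emission ratio; response R=Rf/Ri (post- vs pre-stimulus ratio); antagonism seen as reduced response.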

Molecules are shown by their SMILES.

For `O=C(c1cnc(N2CCSCC2)nc1-c1ccccc1F)N(Cc1ccc(C(F)(F)F)cc1)C1CC1` [compound 85], the results for the IC50 against NaV1.8, on NaV1.3 and against CaV2.2 were 2 to 10 µM, 2 to 10 µM and more than 10 µM, respectively.
Regarding `COc1cccc(N(C(=O)c2cnc(N3CCN(C)CC3)nc2-c2ccccc2F)C(C)C)c1` [compound 87], the IC50 on NaV1.8, against NaV1.3 and against CaV2.2 was more than 10 µM in each case.
On to `CC(C)N(C(=O)c1cnc(N2CCOCC2)nc1-c1ccccc1F)c1ccccc1` [compound 88], for which the IC50 against NaV1.8 is more than 10 µM; against NaV1.3, more than 10 µM; on CaV2.2, 2 to 10 µM.
As for `COc1cccc(OC)c1-c1nc(N2CCOCC2)ncc1C(=O)N(Cc1ccccc1)C(C)C` [compound 89], the IC50 against NaV1.8, against NaV1.3 and on CaV2.2 was more than 10 µM each time.
In the case of `O=C(c1cnc(N2CCCCC2)nc1-c1ccccc1F)N(Cc1ccccc1)C1CC1` [compound 90], the IC50 on NaV1.8, on NaV1.3 and against CaV2.2 was 2 to 10 µM each time.
On to `O=C(c1cnc(N2CCOCC2)nc1-c1ccccc1F)N1CC=C(c2ccccc2)CC1` [compound 91], for which the IC50 against NaV1.8, against NaV1.3 and at CaV2.2 was more than 10 µM each time.
As to `CC(C)N(Cc1ccccc1)C(=O)c1cnc(N2CCC3CCCCC3C2)nc1-c1ccccc1F` (stereo not drawn) [compound 92], the values for the IC50 on NaV1.8, against NaV1.3 and at CaV2.2 were more than 10 µM, more than 10 µM and less than 2 µM, respectively.
Take `CC(C)N(C(=O)c1cnc(N2CCCCC2)nc1-c1ccccc1F)c1ccccc1` [compound 93]: the values for the IC50 at NaV1.8, against NaV1.3 and at CaV2.2 were more than 10 µM, 2 to 10 µM and 2 to 10 µM, respectively.
For the compound `CC(C)N(Cc1ccc2c(c1)OCO2)C(=O)c1cnc(N2CCCCC2)nc1-c1ccccc1F` [compound 94], the figures for the IC50 on NaV1.8, on NaV1.3 and on CaV2.2 were 2 to 10 µM, less than 2 µM and less than 2 µM, respectively.
For `CCN(CCC#N)c1ncc(C(=O)N(Cc2ccccc2)C(C)C)c(-c2ccccc2F)n1` [compound 96], the values for the IC50 on NaV1.8, on NaV1.3 and against CaV2.2 were more than 10 µM, 2 to 10 µM and less than 2 µM, respectively.
As to `O=C(NC1CC1c1ccccc1)c1cnc(N2CCOCC2)nc1-c1ccccc1F` (stereo not drawn) [compound 97], the IC50 against NaV1.8, against NaV1.3 and at CaV2.2 was more than 10 µM in each case.
As to `CC(C)N(Cc1ccccc1)C(=O)c1cnc(N2CCSCC2)nc1-c1ccccc1F` [compound 98], the concentration for half-maximal inhibition (IC50) at NaV1.8 is 2 to 10 µM; on NaV1.3, 2 to 10 µM; against CaV2.2, less than 2 µM.
On to `O=C(c1cnc(N2CCOCC2)nc1-c1ccccc1F)N(Cc1cnc2ccccc2c1)C1CC1` [compound 99], for which the half-maximal inhibitory concentration (IC50) on NaV1.8, against NaV1.3 and at CaV2.2 was more than 10 µM each time.
Consider `O=C(c1cnc(N2CCOCC2)nc1-c1ccccc1F)N(Cc1ccccc1)C1CC1` [compound 100], for which the half-maximal inhibitory concentration (IC50) at NaV1.8 was more than 10 µM; at NaV1.3, 2 to 10 µM; on CaV2.2, 2 to 10 µM.
On to `CC(C)N(C(=O)c1cnc(N2CCCCC2)nc1-c1ccccc1Cl)c1cccc(C#N)c1` [compound 101], for which the values for the IC50 against NaV1.8, against NaV1.3 and against CaV2.2 were more than 10 µM, 2 to 10 µM and 2 to 10 µM, respectively.
Take `N=C(N)NCCCNC(=O)c1cnc(N2CCC3CCCCC3C2)nc1-c1ccccc1F` (stereo not drawn) [compound 102]: the IC50 at NaV1.8, against NaV1.3 and at CaV2.2 was more than 10 µM throughout.
For `CCN(CCOC)c1ncc(C(=O)N(Cc2cccc(OC)c2)C(C)C)c(-c2ccccc2F)n1` [compound 103], the values for the IC50 on NaV1.8, on NaV1.3 and against CaV2.2 were more than 10 µM, less than 2 µM and less than 2 µM, respectively.
Consider `COc1cccc(N(C(=O)c2c(C)nc(N3CCCCC3)nc2-c2ccccc2F)C(C)C)c1` [compound 104], for which the results for the IC50 on NaV1.8, at NaV1.3 and at CaV2.2 were more than 10 µM, 2 to 10 µM and more than 10 µM, respectively.
On to `CC(C)N(C(=O)c1cnc(N2CCC3CCCCC3C2)nc1-c1ccccc1F)c1ccccc1` (stereo not drawn) [compound 105], for which the values for the IC50 on NaV1.8, against NaV1.3 and on CaV2.2 were more than 10 µM, 2 to 10 µM and 2 to 10 µM, respectively.
For the compound `CC(C)N(Cc1ccccc1)C(=O)c1cnc(Nc2nc3ccccc3[nH]2)nc1-c1ccccc1F` [compound 106], the IC50 against NaV1.8, on NaV1.3 and against CaV2.2 was more than 10 µM throughout.
Regarding `O=C(c1cnc(N2CCOCC2)nc1-c1ccccc1F)N1CCc2ccccc2C1` [compound 107], the IC50 against NaV1.8, at NaV1.3 and against CaV2.2 was more than 10 µM in each case.
With `COc1ccc(N(C(=O)c2cnc(N3CCCCC3)nc2-c2ccccc2F)C(C)C)cc1` [compound 108], the values for the IC50 at NaV1.8, on NaV1.3 and against CaV2.2 were more than 10 µM, 2 to 10 µM and less than 2 µM, respectively.
The matching figures for `O=C(c1cnc(N2CCSCC2)nc1-c1ccccc1F)N(Cc1ccccc1)C1CC1` [compound 109]: more than 10 µM, 2 to 10 µM and 2 to 10 µM.
The matching figures for `O=C(c1cnc(N2CCOCC2)nc1-c1ccccc1F)N(Cc1cccc(F)c1)C1CC1` [compound 110]: more than 10 µM, more than 10 µM and 2 to 10 µM.
The matching figures for `CC(C)N(C(=O)c1cnc(N2CCOCC2)nc1-c1ccccc1F)c1cccc(N(C)C)c1` [compound 111]: more than 10 µM, more than 10 µM and more than 10 µM.
For `CC(C)N(C(=O)c1cnc(N2CCCCC2)nc1-c1ccccc1F)c1cccc2ccccc12` [compound 112], the IC50 against NaV1.8 is more than 10 µM; at NaV1.3, 2 to 10 µM; against CaV2.2 it was more than 10 µM.
On to `CCC(COC)N(Cc1ccccc1)C(=O)c1cnc(N2CCOCC2)nc1-c1ccccc1F` (stereo not drawn) [compound 113], for which the IC50 at NaV1.8 is more than 10 µM; at NaV1.3, 2 to 10 µM; at CaV2.2, more than 10 µM.
In the case of `O=C(c1cnc(N2CCC3CCCCC3C2)nc1-c1ccccc1F)N(Cc1cccc(-c2ccncc2)c1)C1CC1` (stereo not drawn) [compound 114], the IC50 at NaV1.8 is more than 10 µM; against NaV1.3, more than 10 µM; against CaV2.2, less than 2 µM.
On to `COc1cccc(N(C(=O)c2cnc(N3CCCCC3)nc2-c2ccccc2Cl)C2CCCCC2)c1` [compound 115], for which the IC50 against NaV1.8 is more than 10 µM; on NaV1.3, more than 10 µM; at CaV2.2 it was 2 to 10 µM.
In the case of `COc1cccc(N(C(=O)c2cnc(N3CCCCC3)nc2-c2ccccc2F)C2CCC2)c1` [compound 116], the IC50 against NaV1.8 is more than 10 µM; against NaV1.3 it was 2 to 10 µM; at CaV2.2 it was 2 to 10 µM.
For the compound `CC(C)N(Cc1ccccc1)C(=O)c1cnc(N2CCCCC2)nc1-c1ccccc1F` [compound 117], the half-maximal inhibitory concentration (IC50) against NaV1.8 was 2 to 10 µM; on NaV1.3, 2 to 10 µM; against CaV2.2 it was less than 2 µM.
For the compound `CC(C)N(Cc1ccccc1)C(=O)c1cnc(NCCc2ccc(F)cc2)nc1-c1ccccc1F` [compound 118], the IC50 is more than 10 µM against NaV1.8, 2 to 10 µM at NaV1.3 and less than 2 µM at CaV2.2.
The matching figures for `CC(C)N(Cc1ccc(C(C)(C)C)cc1)C(=O)c1cnc(N2CCCCC2)nc1-c1ccccc1Cl` [compound 119]: more than 10 µM, more than 10 µM and 2 to 10 µM.
The matching figures for `CC(C)N(Cc1ccc2c(c1)OCO2)C(=O)c1cnc(N2CCC3CCCCC3C2)nc1-c1ccccc1F` (stereo not drawn) [compound 120]: more than 10 µM, 2 to 10 µM and less than 2 µM.
